Measured values taken from US20240066089A1, “ARTOCARPUS HETEROPHYLLUS COMPOSITION AND METHOD OF PROMOTING URINARY TRACT HEALTH” (priority 2022, published 2024).
≈ marks a conversion by molar mass, not a printed value.

How the values were obtained:
5-alpha-reductase = assay: In vitro 5-alpha-reductase assay (NADPH absorbance at 340 nm, liver S9 fraction); type: biochemical; conditions: 20 μg liver S9 fraction, 6 minutes at 37° C., Finasteride 20-70 ng/mL
Protocol: In vitro 5-alpha-reductase assay was performed according to Sun et al. (1998) with some modifications. NADPH has characteristic absorbance at 340 nm, and the absorbance spectrum may be used to measure the decline in NADPH concentration as a measure of enzyme activity. Briefly, the reaction mixture contained 40 mM phosphate buffer pH 7.0, 93 μM NADPH, 2.265 μM testosterone and 20 μg liver S9 fraction with or without different concentrations of the extract (2-6 μg/mL) or reference compound Finasteride (20-70 ng/mL), incubated for 6 minutes at 37° C. The absorbance was read at 340 nm in UV-visible spectrophotometer. IC50 values were determined for the extract and Finasteride.

[1] = test system: testosterone induced BPH model rats; assay: Prostate growth in testosterone-induced BPH model rats; type: in vivo, Wistar rats; conditions: 28 days; for Growth inhibition (%): prostate growth, Fina group, 1 mg/kg, mean ± SD n = 6
[2] = test system: testosterone induced BPH model rats; assay: Histopathological examination of prostate tissue of BPH model rats; type: in vivo, Wistar rats; conditions: H&E stained sections
[3] = test system: testosterone induced BPH model rats; assay: Antioxidant activity in prostate tissue of BPH model rats (SOD, catalase, GSH, glutathione reductase); type: in vivo, Wistar rats; conditions: Finasteride 1 mg/kg, in comparison with BPH group (p<0.001)

Compound: CC(C)(C)NC(=O)[C@H]1CC[C@H]2[C@@H]3CC[C@H]4NC(=O)C=C[C@]4(C)[C@H]3CC[C@]12C [Finasteride]
- IC50 value, 5-alpha-reductase activity (5-alpha-reductase): 0.0632 µg/mL (≈ 0.17 µM)
- prostate weights ([1]; in comparison with BPH control (p<0.001)): reduced significantly
- Growth inhibition (%) [1]: 90.22%
- Growth inhibition (%) ([1]; listed as Fina): 90.22 ± 10.85%
- pathological changes (hyperplastic patterns) in prostate tissue [2]: not evident
- SOD activity [3]: significantly increased
